According to the supplement of paper PMC9103864:

Experiments:
[1] = test system: BMSC (primary human bone marrow mesenchymal stromal cells); assay: drug sensitivity score (DSS); higher = more sensitive
[2] = test system: BMSC (primary human bone marrow mesenchymal stromal cells); assay: absolute EC50 for viability; higher = less sensitive

## CC(C)c1cc(C(=O)N2Cc3ccc(CN4CCN(C)CC4)cc3C2)c(O)cc1O [Onalespib]
[1]
  drug sensitivity score: 12.5
[2]
  absolute EC50 for viability: 0.0904 µM

## CCCCc1nc2cc(/C=C/C(=O)NO)ccc2n1CCN(CC)CC [Pracinostat]
[1]
  drug sensitivity score: 8.8
[2]
  absolute EC50 for viability: 1.56 µM

## CS(=O)(=O)CCNCc1ccc(-c2ccc3ncnc(Nc4ccc(OCc5cccc(F)c5)c(Cl)c4)c3c2)o1 [Lapatinib]
[1]
  drug sensitivity score: 0.1
[2]
  absolute EC50 for viability: > 1 µM

## N[C@@H]1CCCN(c2c(/C=C3\SC(=O)NC3=O)cccc2-c2ccccc2)C1 [AZD1208]
[1]
  drug sensitivity score: 0.5
[2]
  absolute EC50 for viability: > 10 µM

## CON(C)C(=O)N1N=C(c2cc(F)ccc2F)S[C@@]1(CCCN)c1ccccc1 [Filanesib]
[1]
  drug sensitivity score: 0
[2]
  absolute EC50 for viability: > 1 µM

## Cc1[nH]c2ccccc2c1CCNCc1ccc(/C=C/C(=O)NO)cc1 [Panobinostat]
[1]
  drug sensitivity score: 10.2
[2]
  absolute EC50 for viability: 0.123 µM

## CC(C)C[C@H](NC(=O)[C@H](CCc1ccccc1)NC(=O)CN1CCOCC1)C(=O)N[C@@H](Cc1ccccc1)C(=O)N[C@@H](CC(C)C)C(=O)[C@@]1(C)CO1 [Carfilzomib]
[1]
  drug sensitivity score: 19.7
[2]
  absolute EC50 for viability: 0.0187 µM

## C#Cc1cccc(Nc2ncnc3cc(OCCOC)c(OCCOC)cc23)c1 [Erlotinib]
[1]
  drug sensitivity score: 1.5
[2]
  absolute EC50 for viability: > 10 µM

## CN(C)C(=O)c1ccc(S(=O)(=O)c2ccc(NC(=O)C(C)(O)C(F)(F)F)c(Cl)c2)cc1 (stereo unspecified) [AZD7545]
[1]
  drug sensitivity score: 0
[2]
  absolute EC50 for viability: > 10 µM

## Nc1ccn([C@@H]2O[C@H](CO)[C@@H](O)[C@@H]2O)c(=O)n1 [Cytarabine]
[1]
  drug sensitivity score: 1.2
[2]
  absolute EC50 for viability: > 10 µM

## C#Cc1cccc(Nc2ncnc3cc4c(cc23)OCCOCCOCCO4)c1 [Icotinib]
[1]
  drug sensitivity score: 2.1
[2]
  absolute EC50 for viability: > 10 µM

## O=C(Nc1ccc2[nH]nc(-c3ccncc3)c2c1)[C@@H]1CCN(CC(=O)N2CCN(c3ccc(-c4ncccn4)cc3)CC2)C1
[1]
  drug sensitivity score: 4
[2]
  absolute EC50 for viability: > 10 µM

## N#Cc1ccc(C(c2ccc(C#N)cc2)n2cncn2)cc1 [Letrozole]
[1]
  drug sensitivity score: 0
[2]
  absolute EC50 for viability: > 10 µM

## C[C@@H]1C[C@H]2[C@@H]3CCC4=CC(=O)C=C[C@]4(C)[C@@]3(F)[C@@H](O)C[C@]2(C)[C@@]1(O)C(=O)CO [Dexamethasone]
[1]
  drug sensitivity score: 0
[2]
  absolute EC50 for viability: > 10 µM

## CO[C@H]1C(=O)[C@]2(C)[C@@H](OC)C[C@H]3OC[C@@]3(OC(C)=O)[C@H]2[C@H](OC(=O)c2ccccc2)[C@]2(O)C[C@H](OC(=O)[C@H](O)[C@@H](NC(=O)OC(C)(C)C)c3ccccc3)C(C)=C1C2(C)C [Cabazitaxel]
[1]
  drug sensitivity score: 7.2
[2]
  absolute EC50 for viability: > 1 µM

## Nc1cc(F)ccc1NC(=O)/C=C/c1cnn(C/C=C/c2ccccc2)c1 [RGFP966]
[1]
  drug sensitivity score: 0.6
[2]
  absolute EC50 for viability: > 10 µM

## Cn1cc(-c2ccc(F)c(C(F)(F)F)c2)nc1C1CCN(c2ncnc3[nH]ncc23)CC1
[1]
  drug sensitivity score: 0
[2]
  absolute EC50 for viability: > 10 µM

## CC1=C2C[C@H]3[C@@H](CC[C@@H]4C[C@H](NS(C)(=O)=O)CC[C@@]43C)[C@@H]2CC[C@@]2(C1)O[C@@H]1C[C@H](C)CN[C@H]1[C@H]2C [Saridegib]
[1]
  drug sensitivity score: 0
[2]
  absolute EC50 for viability: > 10 µM

## O=C(O)CCCCC(CCSCc1ccccc1)SCc1ccccc1 (stereo unspecified) [CPI-613]
[1]
  drug sensitivity score: 0
[2]
  absolute EC50 for viability: > 10 µM

## Cc1c(F)cc(C(=O)NC2CC2)cc1-c1ccc(C(=O)NCC(C)(C)C)cn1 [Losmapimod]
[1]
  drug sensitivity score: 0
[2]
  absolute EC50 for viability: > 10 µM

## CCCCCCCCCCCCCCCCCCOP(=O)([O-])OC1CC[N+](C)(C)CC1 [Perifosine]
[1]
  drug sensitivity score: 0
[2]
  absolute EC50 for viability: > 2.5 µM

## N#Cc1ccnc(N2C(=O)CC[C@H]2C(=O)N(c2cncc(F)c2)[C@H](C(=O)NC2CC(F)(F)C2)c2ccccc2Cl)c1 [Ivosidenib]
[1]
  drug sensitivity score: 0
[2]
  absolute EC50 for viability: > 10 µM

## CNc1nc(-c2ccc3c(N)n[nH]c3c2)cc(N2C[C@@H](C(=O)NC3CCCCC3)CC[C@H]2C)n1
[1]
  drug sensitivity score: 5.4
[2]
  absolute EC50 for viability: > 10 µM

## Cc1cc(Nc2ncc(Cl)c(Nc3ccccc3S(=O)(=O)C(C)C)n2)c(OC(C)C)cc1C1CCNCC1 [Ceritinib]
[1]
  drug sensitivity score: 1.3
[2]
  absolute EC50 for viability: > 2.5 µM

## Nc1ccn([C@@H]2O[C@H](CO)[C@@H](O)C2(F)F)c(=O)n1 [Gemcitabine]
[1]
  drug sensitivity score: 4.5
[2]
  absolute EC50 for viability: > 1 µM

## COc1cc2c(cc1-c1c(C)noc1C)ncc1[nH]c(=O)n([C@H](C)c3ccccn3)c12 [I-BET151]
[1]
  drug sensitivity score: 3.5
[2]
  absolute EC50 for viability: > 10 µM

## CC(C)NC[C@@H](C(=O)N1CCN(c2ncnc3c2[C@H](C)C[C@H]3O)CC1)c1ccc(Cl)cc1 [Ipatasertib]
[1]
  drug sensitivity score: 4.7
[2]
  absolute EC50 for viability: > 10 µM

## C=C1C[C@@H]2[C@H](CC[C@]3(C)C(=O)CC[C@@H]23)[C@@]2(C)C=CC(=O)C=C12 [Exemestane]
[1]
  drug sensitivity score: 0
[2]
  absolute EC50 for viability: > 10 µM

## Cc1cc([C@@H](C)Nc2ccccc2C(=O)O)c2nc(N3CCOCC3)cc(=O)n2c1 [AZD-6482]
[1]
  drug sensitivity score: 2.1
[2]
  absolute EC50 for viability: > 2.5 µM

## CCC/C=C/C=C/C(=O)O[C@H]1/C(=C/C(=O)OC)C[C@H]2C[C@H]([C@@H](C)O)OC(=O)C[C@H](O)C[C@@H]3C[C@H](OC(C)=O)C(C)(C)[C@](O)(C[C@@H]4C/C(=C/C(=O)OC)C[C@H](/C=C/C(C)(C)[C@]1(O)O2)O4)O3 [Bryostatin 1]
[1]
  drug sensitivity score: 0
[2]
  absolute EC50 for viability: > 0.1 µM

## CNC(=O)c1ccc(N2C(=S)N(c3ccc(C#N)c(C(F)(F)F)c3)C(=O)C2(C)C)cc1F [Enzalutamide]
[1]
  drug sensitivity score: 0
[2]
  absolute EC50 for viability: > 10 µM

## CNS(=O)(=O)Nc1nccc(Cc2c(C)c3ccc(Oc4ncccn4)cc3oc2=O)c1F
[1]
  drug sensitivity score: 0
[2]
  absolute EC50 for viability: > 1 µM

## CC(=O)Nc1ccc(C(=O)Nc2ccccc2N)cc1 [Tacedinaline]
[1]
  drug sensitivity score: 0
[2]
  absolute EC50 for viability: > 1 µM

## Cc1cc(Nc2cc(N3CCN(C)CC3)nc(Sc3ccc(NC(=O)C4CC4)cc3)n2)n[nH]1 [Tozasertib]
[1]
  drug sensitivity score: 4.9
[2]
  absolute EC50 for viability: 4.45 µM

## COc1c(OCCCN2CCOCC2)ccc2c3n(c(=NC(=O)c4cnc(N)nc4)nc12)CCN3 [Copanlisib]
[1]
  drug sensitivity score: 13
[2]
  absolute EC50 for viability: 0.126 µM

## CCc1cncnc1N1CCN(Cc2nc3ccc(C(F)(F)F)cc3[nH]2)CC1
[1]
  drug sensitivity score: 1
[2]
  absolute EC50 for viability: > 10 µM

## O=C(O)CC[C@H]1CC[C@@](c2cc(F)ccc2F)(S(=O)(=O)c2ccc(Cl)cc2)CC1 [MK-0752]
[1]
  drug sensitivity score: 0
[2]
  absolute EC50 for viability: > 1 µM

## CN[C@@H](C)C(=O)N[C@H]1CN(C(=O)CC(C)C)CC[C@H]2CC[C@@H](C(=O)NC(c3ccccc3)c3ccccc3)N2C1=O [AT-406]
[1]
  drug sensitivity score: 0
[2]
  absolute EC50 for viability: > 10 µM

## C1=N/C2=N/c3ccc(OCCN4CCCC4)c(c3)COC/C=C/COCc3cccc(c3)C(=C1)N2 [Pacritinib]
[1]
  drug sensitivity score: 4.7
[2]
  absolute EC50 for viability: 3.67 µM

## Nc1nc2[nH]cc(CCc3ccc(C(=O)N[C@@H](CCC(=O)O)C(=O)O)cc3)c2c(=O)[nH]1 [Pemetrexed]
[1]
  drug sensitivity score: 0.7
[2]
  absolute EC50 for viability: > 10 µM

## O=C(/C=C/c1cccc(S(=O)(=O)Nc2ccccc2)c1)NO [Belinostat]
[1]
  drug sensitivity score: 7.2
[2]
  absolute EC50 for viability: 2.23 µM

## CNC(=O)CN1CCC(Oc2cc3c(Nc4cccc(Cl)c4F)ncnc3cc2OC)CC1 [Sapitinib]
[1]
  drug sensitivity score: 0
[2]
  absolute EC50 for viability: > 1 µM

## Nc1ncnc2c1c(COc1cccc(Cl)c1)nn2C1CCOCC1
[1]
  drug sensitivity score: 0
[2]
  absolute EC50 for viability: > 10 µM

## Oc1ncnc2[nH]ncc12 [Allopurinol]
[1]
  drug sensitivity score: 0
[2]
  absolute EC50 for viability: > 10 µM

## Cc1cn(-c2cc(NC(=O)c3ccc(C)c(Nc4nccc(-c5cccnc5)n4)c3)cc(C(F)(F)F)c2)cn1 [Nilotinib]
[1]
  drug sensitivity score: 0
[2]
  absolute EC50 for viability: > 10 µM

## Cc1noc2c1-c1ccccc1C(c1ccc(Cl)cc1)=N[C@H]2CC(N)=O [CPI-0610]
[1]
  drug sensitivity score: 0
[2]
  absolute EC50 for viability: > 10 µM

## CC1(C)CCC(c2ccc(Cl)cc2)=C(CN2CCN(c3ccc(C(=O)NS(=O)(=O)c4ccc(N[C@H](CCN5CCOCC5)CSc5ccccc5)c(S(=O)(=O)C(F)(F)F)c4)cc3)CC2)C1 [Navitoclax]
[1]
  drug sensitivity score: 0
[2]
  absolute EC50 for viability: > 10 µM

## CC/C(=C(\c1ccc(O)cc1)c1ccc(OCCN(C)C)cc1)c1ccccc1 [4-hydroxytamoxifen]
[1]
  drug sensitivity score: 0
[2]
  absolute EC50 for viability: 9.93 µM

## CNC(=O)c1ccc(-c2cnc3ncc(Cc4ccc5ncccc5c4)n3n2)cc1F [Capmatinib]
[1]
  drug sensitivity score: 0.5
[2]
  absolute EC50 for viability: > 1 µM

## O=C1CCC(N2C(=O)c3ccccc3C2=O)C(=O)N1 (stereo unspecified) [Thalidomide]
[1]
  drug sensitivity score: 0
[2]
  absolute EC50 for viability: > 10 µM

## Cn1cc(-c2cnn3c(N)c(Br)c([C@@H]4CCCNC4)nc23)cn1 [MK-8776]
[1]
  drug sensitivity score: 1
[2]
  absolute EC50 for viability: > 2.5 µM

## CNCc1ccc(-c2[nH]c3cc(F)cc4c3c2CCNC4=O)cc1 [Rucaparib]
[1]
  drug sensitivity score: 2.3
[2]
  absolute EC50 for viability: > 10 µM

## Cc1sc2c(c1C)C(c1ccc(Cl)cc1)=N[C@@H](CC(=O)OC(C)(C)C)c1nnc(C)n1-2 [JQ1]
[1]
  drug sensitivity score: 5.3
[2]
  absolute EC50 for viability: > 10 µM

## O=C(Nc1ccncc1)C(=O)c1cn(Cc2ccc(Cl)cc2)c2ccccc12 [Indibulin]
[1]
  drug sensitivity score: 0
[2]
  absolute EC50 for viability: > 10 µM

## COc1cc2c(NC3CCN(C(C)C)CC3)nc(C3CCCCC3)nc2cc1OCCCN1CCCC1 [UNC0638]
[1]
  drug sensitivity score: 5.4
[2]
  absolute EC50 for viability: 3.29 µM

## C[C@H]1C[C@@H](n2c(Nc3ccc(OC(F)(F)F)cc3)nc3cc(CCC(=O)O)ccc32)CC(C)(C)C1
[1]
  drug sensitivity score: 0
[2]
  absolute EC50 for viability: > 10 µM

## CC(C)c1cc(-c2n[nH]c(=O)n2-c2ccc3c(ccn3C)c2)c(O)cc1O [Ganetespib]
[1]
  drug sensitivity score: 10.3
[2]
  absolute EC50 for viability: 0.0862 µM

## COc1ccc(-c2nc(N3CCOCC3)c3sc(CN(C)c4ncc(C(=O)NO)cn4)cc3n2)cn1 [CUDC-907]
[1]
  drug sensitivity score: 24.6
[2]
  absolute EC50 for viability: 0.0649 µM
